# Structures can show the parent of a compound that is named as a salt.
# System: alpha 1a receptors versus alpha 1b and alpha 1d receptors
# Assay: Selective Binding Assays: binding to alpha 1a versus alpha 1b and alpha 1d receptors ([125I]-HEAT competition binding)
# Parameters: species or system human
# Details: alpha 1a versus both alpha 1b and alpha 1d; at least about
# Experimental: Membranes prepared from the stably transfected human alpha 1a cell line (ATCC CRL 11140) were used to identify compounds that bind to the human alpha 1a adrenergic receptor. These competition binding reactions (total volume=200 μl) contained 50 mM Tris-HCl pH. 7.4, 5 mM EDTA, 150 mM NaCl, 100 pM [^125 I]-HEAT, membranes prepared from the alpha 1a cell line and increasing amounts of unlabeled ligand. Reactions were incubated at room temperature for one hour with shaking. Reactions were filtered onto Whatman GF/C glass fiber filters with a Inotec 96 well cell harvester. Filters were washed three times with ice cold buffer and bound radioactivity was determined (Ki).
# Membranes prepared from stably transfected human alpha 1d and alpha 1b cell lines (ATCC CRL 11138 and CRL 11139, respectively) were used to identify compounds that selectively bind to the human alpha 1a adrenergic receptor. These competition binding reactions (total volume=200 μl) contained 50 mM Tris-HCl pH. 7.4, 5 mM EDTA, 150 mM NaCl, 100 pM [^125 I]-HEAT, membranes prepared from cell lines transfected with the respective alpha 1 subtype expression plasmid and increasing amounts of unlabeled ligand. Reactions were incubated at room temperature for one hour with shaking. Reactions were filtered onto Whatman GF/C glass fiber filters with a Inotec 96 well cell harvester. Filters were washed three times with ice cold buffer and bound radioactivity was determined (Ki).
row,SMILES,fold more selective in binding to alpha 1a receptors versus binding to the alpha 1b and alpha 1d receptors
1,"N#Cc1ccccc1C1(C#N)CCN(CCCNC(=O)N2C(=O)CCCC2c2ccc(F)c(F)c2)CC1 (racemic) [Example 5, (6RS)-, 6(R)- and 6(S)-1-[3-[4-(2-Cyanophenyl)-4-cyanopiperidin-1-yl]-propylaminocarbonyl]-6-(3,4-difluorophenyl)piperidin-2-one Hydrochloride]",at least 10 fold
2,"CN1CCC(c2ccc(F)c(F)c2)N(C(=O)NCCCN2CCC(c3ccc(F)cc3)CC2)C1=O (centres unmarked) [Example 17, 4-(3,4-Difluorophenyl)-1-methyl-3-[(4'-(4-fluorophenyl)piperidin-1'-yl)propyl]aaminocarbonyltetrahydropyrimidin-2-one Hydrochloride]",at least 10 fold
